Patent publication US4570005A, “Process for the preparation of 2-arylpropyl ether or thioether derivatives” (priority 1980, dated 1986)
Converted amounts (≈) assume the structure as drawn.

Assays:
[1] = tested on: plants of Solanacede; settings: Fenvalerate; general statement; cited from earlier work
[2] = Test 9: Toxicity Test (acute oral toxicity, mice); settings: mouse, in vivo, po
Procedure: (§1) A predetermined amount of a solution or suspension of a test compound in corn oil was orally administered to male mice having a body weight of 19 to 23 g (0.2 ml per 10 g of the body weight). After 7 days, the number of killed mice was counted and the influences on the mice were examined.

[3] = tested on: resistant green rice leafhopper (collected at Nakagawara); assay: Test 3: Effect on Resistant Green Rice Leafhopper (collected at Nakagawara); assay type: in vivo, Nephotettix cincticeps Uhler (Green rice leafhopper); settings: Nephotettix cincticeps, 24 h, read-out: Mortality (%), Green Rice Leafhopper Collected at Nakagawara
How it was run: (§2)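 Emulsifiable concentrate diluted to 100 or 20 ppm was sprayed, 3 ml per pot, onto hydroponic rice seedlings at 2–3 leaves. After air-drying, 10 female adults of the Nakagawara (resistant) or Chigasaki (sensitive) strain were released per caged pot. Mortality was counted at 24 h and averaged over three pots.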

[4] = tested on: green peach aphid; assay: Test 5: Effect on Green Peach Aphid; assay type: in vivo; settings: Myzus persicae; 100 ppm; mortality class; 24 hours; read-out: Insecticidal Activity
How it was run: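 Eggplant seedlings with 3–4 leaves were infested with aphids and sprayed with a 100 ppm aqueous dilution of an emulsifiable concentrate, then kept in a glasshouse. Living insects were counted after 24 h. Mortality is averaged over three pots and graded A (>95%), B (80–95%), C (50–80%) or D (<50%).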

[5] = tested on: diamond back moth; assay: Test 4: Effect on Diamond Back Moth; assay type: in vivo; settings: Plutella, third-instar larvae, 24 hours, read-out: Mortality (%)
How it was run: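 Compound formulated as an emulsifiable concentrate, diluted in water to 100 or 20 ppm and sprayed at 3 ml per cup onto cabbage leaves holding 10 third-instar larvae. Mortality counted after 24 hours; mean of three cups.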

[6] = Test 8: Fish Toxicity; assay type: in vivo; settings: carp, water; concentration at which 1/2 of the test fishes were killed within 48 hours; read-out: Fish Toxicity, TLm48
Procedure: A water tank having a width of 60 cm, a length of 30 cm and a height of 40 cm was filled with water, and 10 yearling carps having a body length of about 5 cm were set free in the tank and adapted to the environment in the tank. A test compound was applied so that the concentration in water was 10, 1 or 0.1 ppm. After 48 hours, the numbers of killed and living carps were counted and the influences on the fishes were examined.

[7] = tested on: tobacco cutworm; assay: Test 1: Effect on Tobacco Cutworm (leaf immersion), mortality after 24 hours; assay type: in vivo; settings: second-instar larvae, 25° C
How it was run: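 Sweet-potato leaves dipped 10 s in emulsifiable concentrate diluted to 100 or 20 ppm, air-dried, then exposed to second-instar larvae at 25 °C. Mortality counted after 24 h, averaged over three cups.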

[8] = tested on: two-spotted spider mite; assay: Test 6: Effect on Two-Spotted Spider mite Adults; assay type: in vivo; settings: 100 ppm, adults, 24 hours, 25° C; for mortality at 100 ppm: Tetranychus urticae, read-out: Mortality (%)
Procedure: To a mixture of 20 parts of the compound of the present invention and 20 parts of Sorpol SM-200 (registered tradename for the product supplied by Toho Chemical Industrial Co., Ltd.) was added 60 parts of xylol, and the mixture was suffciently blended. The obtained emulsifiable concentrate was diluted at a predetermined concentration with distilled water, and the obtained dilution was used.
A kidney bean leaf disc perforated with a cork borer (15 mm in diameter) was placed on water-impregnated absorbent cotton (2 cm×2 cm), and 10 adults of two-spotted spider mite were set free. A chemical dilution having a concentration of 100 ppm was applied with an applicator in an amount of 3 ml.
The leaf disc-placed absorbent cotton was placed in a thermostat chamber maintained at 25° C. After 24 hours, the number of killed adults was counted and the mortality was calculated. The test was made on three leaf discs and the average value was calculated.

[9] = tested on: German cockroach; assay: Test 7: Effect on German Cockroach; assay type: in vivo; settings: Blattella germanica, male adults, agonized and killed after 24 hours, read-out: Mortality (%); for mortality at 10 mg/m2: 10 mg/m^2; for mortality at 50 mg/m2: 50 mg/m^2
How it was run: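 Petri dish floors were treated with 50 or 10 mg/m2 of compound (diluted emulsifiable concentrate) and air-dried. Ten male adult German cockroaches per dish were held at 25° C. Agonized and dead insects were counted after 24 hours, averaging two dishes.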

[10] = tested on: sensitive green rice leafhopper (collected at Chigasaki); assay: whole plant or invertebrate; assay type: in vivo; settings: Nephotettix cincticeps, sensitive female adults, 24 hours, read-out: Mortality (%), Green Rice Leafhopper Collected at Chigasaki
How it was run: as §2

[11] = tested on: tobacco cutworm; assay: Test 2: Tobacco Cutworm Larva Dipping Test, mortality after 24 hours; assay type: in vivo; settings: 24 hours
How it was run: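 Second- and fifth-instar larvae dipped 5 s in a water dilution of an emulsifiable concentrate at 100 or 20 ppm, blotted, then held on artificial diet at 25° C. Dead and living larvae counted after 24 hours; mortality averaged over three cups.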

[12] = tested on: male mice; assay: Test 9: Toxicity Test (acute oral toxicity, mice); settings: oral; corn oil; male mice; 7 days
Procedure: as §1

[13] = fifth-instar larvae, read-out: Motality (%), Fifth-Instar Larvae
[14] = second-instar larvae, read-out: Motality (%), Second-Instar Larvae

Compound	LD50 at 168 h [2]	mortality at 20 ppm [3]	mortality at 100 ppm [3]	mortality at 100 ppm [4]	mortality at 20 ppm [5]	mortality at 100 ppm [5]	LC50 at 48 h [6]	mortality at 20 ppm [7]	mortality at 100 ppm [7]	mortality at 100 ppm [8]	mortality at 10 mg/m2 [9]	mortality at 50 mg/m2 [9]	mortality at 20 ppm [10]	mortality at 100 ppm [10]	mortality at 20 ppm [11, 13]	mortality at 20 ppm [11, 14]	mortality at 100 ppm [11, 13]	mortality at 100 ppm [11, 14]	further results
CC(C)C(C(=O)OC(C#N)c1cccc(Oc2ccccc2)c1)c1ccc(Cl)cc1 (stereo not drawn) [Fenvalerate]																			phyto-toxicity to plants of Solanacede [1]: observed
CC(C)(COCc1cccc(Oc2ccc(F)cc2)c1)c1ccc(OC(F)F)cc1 [Compound 11, 3-(4-Fluorophenoxy)benzyl 2-(4-difluoromethoxyphenyl)-2-methylpropyl ether]	> 500 mg/kg	100%	100%	> 95%	90%	100%	0.01 to 0.05 µg/mL (≈ 0.024 to 0.12 µM)	100%	100%	100%	100%	100%	100%	100%	70%	90%	100%	100%	
CCC(C)(COCc1cccc(Oc2ccccc2)c1)c1ccc(Cl)cc1 (stereo not drawn) [Compound 50, 3-Phenoxybenzyl 2-(4-chlorophenyl)-2-ethylpropyl ether]	> 500 mg/kg	90%	100%	> 95%	100%	100%	> 10 µg/mL	100%	100%	100%	100%	100%	80%	100%	90%	100%	100%	100%	
CC(C)(COCc1cccc(Oc2ccccc2)c1)c1ccc(Cl)cc1 [Compound 49, 3-Phenoxybenzyl 2-(4-chlorophenyl)-2-methylpropyl ether]	> 500 mg/kg	100%	100%	> 95%	100%	100%	> 10 µg/mL	100%	100%	100%	100%	100%	100%	100%	100%	100%	100%	100%	
Pyrethrin [Comparative Compound (c), reference compound]																			Acute Toxicity at Oral Administration, LD-50 [12]: 340 mg/kg; Mortality (%) [8]: 0%
